Among the data in patent US10844032B2, “Substituted benzofuran, benzothiophene and indole Mcl-1 inhibitors” (Vanderbilt University, priority 2012, dated 2020) are Ki values, retold here.

pKi: −log10 of the molar value.

Chain of recombinant Mcl-1 (residues 172-327) (Q07820 172-327): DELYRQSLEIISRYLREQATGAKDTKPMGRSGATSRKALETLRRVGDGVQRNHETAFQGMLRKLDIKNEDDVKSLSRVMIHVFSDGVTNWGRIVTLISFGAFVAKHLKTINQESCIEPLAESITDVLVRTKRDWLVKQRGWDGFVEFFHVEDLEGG

One test has as its target recombinant Mcl-1 (residues 172-327) (Homo sapiens (Human), UniProt Q07820). As to the kind of experiment: Bak peptide fluorescence polarization anisotropy competition assay, Mcl-1. The format is binding. Conditions: Table 2, Ki range; FITC-Bak peptide 10 nM, Mcl-1 14 nM; read-out: Ki for inhibition of Mcl-1. A general note: Fluorescence polarisation rises when a labelled molecule tumbles more slowly, as on binding a larger partner.
For the compound `Cc1cc(OCCCc2c(C(=O)NS(=O)(=O)c3ccccc3)[nH]c3c(-c4ncccc4C(F)(F)F)cccc23)cc(C)c1Cl` [Example 102, 3-(3-(4-chloro-3,5-dimethylphenoxy)propyl)-N-(phenylsulfonyl)-7-(3-(trifluoromethyl)pyridin-2-yl)-1H-indole-2-carboxamide], the pKi is not below 7.00.

Staying with this test, now noted: read-out: Ki for inhibition of Mcl-1.
With `Cc1cc(OCCCc2c(C(=O)NS(C)(=O)=O)[nH]c3cc(Br)ccc23)cc(C)c1Cl` [Example 112, 6-bromo-3-(3-(4-chloro-3,5-dimethylphenoxy)propyl)-N-(methylsulfonyl)-1H-indole-2-carboxamide], the pKi was 6.30 to 6.52. As for `Cc1cc(OCCCc2c(C(=O)NS(=O)(=O)CCNC(=O)c3cccn3Cc3ccccc3F)[nH]c3cc(Cl)ccc23)cc(C)c1Cl` [Example 248, 6-chloro-3-(3-(4-chloro-3,5-dimethylphenoxy)propyl)-N-((2-(1-(2-fluorobenzyl)-1H-pyrrole-2-carboxamido)ethyl)sulfonyl)-1H-indole-2-carboxamide], the pKi is 6.52 to 7.00. On to `Cc1cc(OCCCc2c(C(=O)NS(C)(=O)=O)[nH]c3cccc(C(F)(F)F)c23)ccc1Cl` [Example 80, 3-(3-(4-chloro-3-methylphenoxy)propyl)-N-(methylsulfonyl)-4-(trifluoromethyl)-1H-indole-2-carboxamide], for which the pKi was 6.52 to 7.00. As to `Cc1cc(OCCCc2c(C(=O)NS(=O)(=O)CCNC(=O)c3c(C)nn(C)c3C)[nH]c3ccccc23)cc(C)c1Cl` [Example 183, 3-(3-(4-chloro-3,5-dimethylphenoxy)propyl)-N-((2-(1,3,5-trimethyl-1H-pyrazole-4-carboxamido)ethyl)sulfonyl)-1H-indole-2-carboxamide], the pKi was 5.00 to 6.00. For the compound `Cc1ccoc1C(=O)NCCS(=O)(=O)NC(=O)c1[nH]c2ccccc2c1CCCOc1cc(C)c(Cl)c(C)c1` [Example 156], the pKi was 6.00 to 6.30. Same read-out and setting: then `Cc1cc(OCCCc2c(C(=O)NS(=O)(=O)CCNC(=O)c3cnco3)[nH]c3ccccc23)cc(C)c1Cl` [Example 188, N-(2-(N-(3-(3-(4-chloro-3,5-dimethylphenoxy)propyl)-1H-indole-2-carbonyl)sulfamoyl)ethyl)oxazole-5-carboxamide], with 5.00 to 6.00; and `Cc1cc(OCCCc2c(C(=O)NS(=O)(=O)CCNC(=O)c3cccn3Cc3cccc(Cl)c3)[nH]c3cc(Cl)ccc23)cc(C)c1Cl` [Example 243, 6-chloro-3-(3-(4-chloro-3,5-dimethylphenoxy)propyl)-N-((2-(1-(3-chlorobenzyl)-1H-pyrrole-2-carboxamido)ethyl)sulfonyl)-1H-indole-2-carboxamide], with 6.30 to 6.52; and `CCc1ccc(CC(=O)NCCS(=O)(=O)NC(=O)c2[nH]c3ccccc3c2CCCOc2cc(C)c(Cl)c(C)c2)cc1` [Example 174, 3-(3-(4-chloro-3,5-dimethylphenoxy)propyl)-N-((2-(2-(4-ethylphenyl)acetamido)ethyl)sulfonyl)-1H-indole-2-carboxamide], with 6.52 to 7.00. On to `Cc1cc(OCCCc2c(C(=O)NS(=O)(=O)CCNC(=O)/C=C/c3ccccc3)[nH]c3ccccc23)cc(C)c1Cl` [Example 163, (E)-3-(3-(4-chloro-3,5-dimethylphenoxy)propyl)-N-((2-cinnamamidoethyl)sulfonyl)-1H-indole-2-carboxamide], for which the pKi is 6.52 to 7.00.

Regarding `CCC(=O)NCCS(=O)(=O)NC(=O)c1[nH]c2cc(Cl)ccc2c1CCCOc1cc(C)c(Cl)c(C)c1` [Example 252, 6-chloro-3-(3-(4-chloro-3,5-dimethylphenoxy)propyl)-N-((2-propionamidoethyl)sulfonyl)-1H-indole-2-carboxamide], the pKi is 6.52 to 7.00. As to `Cc1cc(OCCCc2c(C(=O)NS(=O)(=O)C3CC3)sc3ccccc23)cc(C)c1Cl` [Example 69, 3-(3-(4-chloro-3,5-dimethylphenoxy)propyl)-N-(cyclopropylsulfonyl)benzo[b]thiophene-2-carboxamide], the pKi was 5.00 to 6.00.

Usually pKi stands for the Ki on a negative log10 scale, so that one unit is a factor of ten.
